Test results reported in ChEMBL document CHEMBL1201862, “PubChem BioAssay data set” (2004).
The source made the active and inactive calls.

How the values were obtained:
[1] = target: 1-phosphatidylinositol 4,5-bisphosphate phosphodiesterase beta-3 (Homo sapiens, UniProt Q01970); assay: Fluorescence-based biochemical high throughput dose response assay to identify inhibitors of phospholipase C isozymes (PLC-B3).
[2] = target: 1-phosphatidylinositol 4,5-bisphosphate phosphodiesterase gamma-1 (Homo sapiens, UniProt P19174); assay: Counterscreen for inhibitors of phospholipase C isozymes (PLC-B3): Fluorescence-based biochemical high throughput dose response assay to identify inhibitors of phospholipase C isozymes (PLC-gamma1).
1-phosphatidylinositol 4,5-bisphosphate phosphodiesterase gamma-1, sequence (P19174 whole entry): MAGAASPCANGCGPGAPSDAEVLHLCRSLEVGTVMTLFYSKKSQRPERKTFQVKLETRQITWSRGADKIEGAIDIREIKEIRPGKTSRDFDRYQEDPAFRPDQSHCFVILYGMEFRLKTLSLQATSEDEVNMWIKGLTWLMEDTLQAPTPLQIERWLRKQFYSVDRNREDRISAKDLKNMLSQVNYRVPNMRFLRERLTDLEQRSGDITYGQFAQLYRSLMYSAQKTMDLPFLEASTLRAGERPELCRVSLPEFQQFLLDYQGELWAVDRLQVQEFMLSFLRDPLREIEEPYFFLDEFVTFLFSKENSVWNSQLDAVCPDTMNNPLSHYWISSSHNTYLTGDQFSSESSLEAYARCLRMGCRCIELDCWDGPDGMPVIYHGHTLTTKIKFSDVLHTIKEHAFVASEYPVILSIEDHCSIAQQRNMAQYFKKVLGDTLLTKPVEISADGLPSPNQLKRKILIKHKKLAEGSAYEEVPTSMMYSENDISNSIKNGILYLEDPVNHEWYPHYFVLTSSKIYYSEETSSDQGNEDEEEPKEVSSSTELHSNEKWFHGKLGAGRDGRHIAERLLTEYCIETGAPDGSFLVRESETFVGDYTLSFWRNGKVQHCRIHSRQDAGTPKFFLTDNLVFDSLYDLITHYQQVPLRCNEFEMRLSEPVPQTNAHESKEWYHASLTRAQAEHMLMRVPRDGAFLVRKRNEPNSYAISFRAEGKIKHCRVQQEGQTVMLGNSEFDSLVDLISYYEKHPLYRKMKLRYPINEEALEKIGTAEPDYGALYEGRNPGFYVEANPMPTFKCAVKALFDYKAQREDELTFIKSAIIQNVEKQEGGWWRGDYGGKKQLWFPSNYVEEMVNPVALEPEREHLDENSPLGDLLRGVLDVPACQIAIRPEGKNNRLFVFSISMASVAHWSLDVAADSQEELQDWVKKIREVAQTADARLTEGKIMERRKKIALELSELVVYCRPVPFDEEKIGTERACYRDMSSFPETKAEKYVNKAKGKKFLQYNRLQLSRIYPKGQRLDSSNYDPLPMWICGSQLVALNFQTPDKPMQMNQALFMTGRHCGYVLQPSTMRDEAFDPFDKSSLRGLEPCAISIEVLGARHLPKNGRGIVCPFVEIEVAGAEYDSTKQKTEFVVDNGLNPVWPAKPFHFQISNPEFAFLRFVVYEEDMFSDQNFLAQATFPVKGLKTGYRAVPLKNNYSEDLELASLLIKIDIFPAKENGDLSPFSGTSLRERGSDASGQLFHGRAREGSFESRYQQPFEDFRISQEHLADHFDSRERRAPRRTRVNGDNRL

[3] = target: Potassium channel subfamily K member 9 (Homo sapiens, UniProt Q9NPC2); assay: TASK3 (KCNK9) channel inhibitors, thallium flux, SAR follow-up, selectivity assay for TASK1 inhibitor project, cell-based, FluxOR thallium flux, concentration-response (AID 652211); format: functional;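 further: potency is for inhibitors of the channel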
[4] = target: Potassium channel subfamily K member 3 (Rattus norvegicus, UniProt O54912); assay: SAR analysis for the identification of selective inhibitors of the two-pore domain potassium channel TASK1(KCNK3):Automated Electrophysiology.; format: functional
Potassium channel subfamily K member 3 (Rattus norvegicus, UniProt O54912), sequence (O54912 whole entry, the tested form may be a part): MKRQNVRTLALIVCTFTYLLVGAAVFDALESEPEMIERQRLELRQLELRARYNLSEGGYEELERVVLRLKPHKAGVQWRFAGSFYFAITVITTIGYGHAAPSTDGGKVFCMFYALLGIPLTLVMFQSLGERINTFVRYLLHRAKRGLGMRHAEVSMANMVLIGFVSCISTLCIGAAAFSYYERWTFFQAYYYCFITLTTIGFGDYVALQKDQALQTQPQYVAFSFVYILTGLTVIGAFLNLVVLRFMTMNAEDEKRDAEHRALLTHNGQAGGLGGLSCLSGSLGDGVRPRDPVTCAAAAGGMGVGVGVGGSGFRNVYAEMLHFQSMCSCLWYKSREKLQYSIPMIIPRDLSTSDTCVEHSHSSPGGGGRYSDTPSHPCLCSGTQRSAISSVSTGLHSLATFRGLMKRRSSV

[5] = target: Potassium channel subfamily K member 3 (Homo sapiens, UniProt O14649); assay: TASK1 (KCNK3) potassium channel inhibitors, SAR follow-up, CHO cells, FluxOR thallium flux (AID 652212); format: functional
Potassium channel subfamily K member 3 (Homo sapiens, UniProt O14649), sequence (O14649 whole entry): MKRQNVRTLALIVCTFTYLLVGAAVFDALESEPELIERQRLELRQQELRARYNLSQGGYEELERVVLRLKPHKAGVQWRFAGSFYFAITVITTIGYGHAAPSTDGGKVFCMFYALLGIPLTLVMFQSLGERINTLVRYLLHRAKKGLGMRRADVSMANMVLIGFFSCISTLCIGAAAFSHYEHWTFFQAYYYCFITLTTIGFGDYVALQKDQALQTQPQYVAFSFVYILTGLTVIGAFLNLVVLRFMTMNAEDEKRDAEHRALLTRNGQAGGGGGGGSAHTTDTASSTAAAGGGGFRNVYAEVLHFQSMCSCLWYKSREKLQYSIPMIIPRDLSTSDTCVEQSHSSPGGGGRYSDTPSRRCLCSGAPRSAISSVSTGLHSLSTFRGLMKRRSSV

[6] = BHK-21 cell cytotoxicity, cytotoxicity control for flavivirus guanylyltransferase probe project, secondary screen (AID 624078); format: functional
[7] = miR-122 activators in hepatoma reporter cells, dose response, cell-based, Huh7 psiCHECK-miR122, Renilla luciferase, cherry-picked (AID 651956); format: functional;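 further: huh7 hepatoma cells stably carrying a psiCHECK-2 miR-122 sensor plasmid; renilla luciferase signal reporting endogenous miR-122 activity after 48 h compound exposure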
[8] = HepG2 cell cytotoxicity, dose response, cytotoxicity control, cherry-picked samples (AID 1159577); format: functional, cell-based
[9] = HEK293 cell cytotoxicity, dose response, cytotoxicity control, cherry-picks, set 5 (AID 1053117); format: functional, cell-based
[10] = P. falciparum Dd2 growth inhibitors, dose response, SYBR Green, cherry-picked samples (AID 1159567); format: functional, cell-based
[11] = target: T1, Carboxy-terminal domain RNA polymerase II polypeptide A small phosphatase 1 (Homo sapiens, UniProt Q9GZU7); assay: inhibitors of CTDSP1, concentration-response testing, biochemical assay, absorbance-based, actives from ultra-high-throughput screening (AID 540297); format: functional
T1 sequence (Q9GZU7 whole entry): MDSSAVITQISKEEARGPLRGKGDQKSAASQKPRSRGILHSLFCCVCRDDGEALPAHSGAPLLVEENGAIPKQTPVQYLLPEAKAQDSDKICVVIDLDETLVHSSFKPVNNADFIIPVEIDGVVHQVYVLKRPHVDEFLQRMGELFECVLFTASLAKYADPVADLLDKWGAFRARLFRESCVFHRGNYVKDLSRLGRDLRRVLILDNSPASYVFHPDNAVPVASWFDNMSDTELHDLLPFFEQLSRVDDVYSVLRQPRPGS

Caspase-7 = Caspase-7 (Homo sapiens, UniProt P55210); assay: human caspase-7 inhibitors, dose response, selectivity assay for caspase-6 inhibitor project, biochemical, DEVD-R110 fluorescence, cherry-pick (AID 743295)
Prothrombin = Prothrombin (Bos taurus, UniProt P00735); assay: thrombin inhibition, dose response, biochemical, fluorescence polarization, uHTS hits (AID 602369); format: functional
Caspase-8 = Caspase-8 (Homo sapiens, UniProt Q14790); assay: caspase-8 inhibition counter-screen, dose response, selectivity assay for caspase-6 inhibitor project, biochemical, Z-IETD-R110 fluorescence, cherry-picked samples (AID 743294)
Caspase-8, sequence (Q14790 217-374 limits assumed): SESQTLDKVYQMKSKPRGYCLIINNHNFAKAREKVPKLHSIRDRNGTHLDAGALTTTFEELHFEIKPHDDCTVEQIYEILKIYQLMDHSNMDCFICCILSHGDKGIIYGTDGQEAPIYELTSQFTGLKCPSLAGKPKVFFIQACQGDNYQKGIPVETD
Caspase-8, sequence (Q14790 385-479 limits assumed): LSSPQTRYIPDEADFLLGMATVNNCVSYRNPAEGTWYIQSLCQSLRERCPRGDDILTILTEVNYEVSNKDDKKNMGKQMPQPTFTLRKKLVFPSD

[12] = target: 72 kDa type IV collagenase (Homo sapiens, UniProt P08253); assay: Dose Response validation of uHTS RPN11 inhibitor hits using a MMP-2 Fluorescence assay.; format: functional
72 kDa type IV collagenase, sequence (P08253 whole entry): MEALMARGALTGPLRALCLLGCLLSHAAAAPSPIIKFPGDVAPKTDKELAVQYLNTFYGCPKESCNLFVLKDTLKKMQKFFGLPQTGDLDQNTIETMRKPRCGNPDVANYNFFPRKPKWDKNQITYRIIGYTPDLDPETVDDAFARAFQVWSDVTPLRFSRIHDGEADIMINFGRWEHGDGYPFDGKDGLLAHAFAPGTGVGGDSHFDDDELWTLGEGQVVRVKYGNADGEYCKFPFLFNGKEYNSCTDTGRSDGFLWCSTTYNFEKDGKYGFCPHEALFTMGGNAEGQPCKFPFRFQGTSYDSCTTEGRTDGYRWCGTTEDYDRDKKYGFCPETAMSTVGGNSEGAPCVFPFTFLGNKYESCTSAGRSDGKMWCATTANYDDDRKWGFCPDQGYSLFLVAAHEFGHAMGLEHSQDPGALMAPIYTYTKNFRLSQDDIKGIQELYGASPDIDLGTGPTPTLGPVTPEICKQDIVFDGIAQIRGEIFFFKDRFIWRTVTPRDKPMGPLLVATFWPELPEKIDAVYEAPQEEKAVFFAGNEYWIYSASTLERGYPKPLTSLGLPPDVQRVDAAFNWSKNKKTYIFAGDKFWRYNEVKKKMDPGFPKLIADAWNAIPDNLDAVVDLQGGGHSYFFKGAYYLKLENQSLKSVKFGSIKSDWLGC

[13] = target: 26S proteasome non-ATPase regulatory subunit 14 (Homo sapiens, UniProt O00487); assay: inhibition of proteasome subunit RPN11 – biochemical, fluorescence polarization, uHTS hits, confirmation (AID 602368); format: functional
26S proteasome non-ATPase regulatory subunit 14, sequence (O00487 whole entry): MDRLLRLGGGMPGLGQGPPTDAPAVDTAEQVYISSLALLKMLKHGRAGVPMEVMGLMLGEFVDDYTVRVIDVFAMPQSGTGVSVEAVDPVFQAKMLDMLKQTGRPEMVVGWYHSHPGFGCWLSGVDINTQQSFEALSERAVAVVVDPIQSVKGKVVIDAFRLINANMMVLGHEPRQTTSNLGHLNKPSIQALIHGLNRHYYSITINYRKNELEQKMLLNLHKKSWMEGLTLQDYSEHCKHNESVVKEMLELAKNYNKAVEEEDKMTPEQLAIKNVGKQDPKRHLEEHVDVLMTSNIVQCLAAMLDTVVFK

[14] = THP-1 cell cytotoxicity, dose response, cytotoxicity control for Vif-APOBEC3G degradation inhibitor project, THP-1 cells (AID 1117359); format: functional; conditions: Human immunodeficiency virus 1, THP-1
[15] = target: T2, Small ubiquitin-related modifier 1 (Homo sapiens, UniProt P63165); assay: inhibitors of SUMO1 peptide binding, dose response, biochemical, fluorescence polarization, uHTS hits (AID 624382); format: functional; conditions: read-out: IC50_Mean
T2 sequence (P63165 whole entry): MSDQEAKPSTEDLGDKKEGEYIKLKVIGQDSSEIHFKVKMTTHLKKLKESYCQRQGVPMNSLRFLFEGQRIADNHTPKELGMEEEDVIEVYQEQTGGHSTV

[16] = target: DNA (cytosine-5)-methyltransferase 1 (Homo sapiens, UniProt P26358); assay: DNMT1 methyltransferase inhibitors, confirmation, biochemical, fluorescent molecular beacon (AID 602386); format: functional
Caspase-6 = target: T3, Caspase-6 (Homo sapiens, UniProt P55212); assay: human caspase-6 inhibitors, dose response, biochemical, VEID-R110 fluorescence, cherry-pick (AID 720632)
T3 sequence (P55212 whole entry): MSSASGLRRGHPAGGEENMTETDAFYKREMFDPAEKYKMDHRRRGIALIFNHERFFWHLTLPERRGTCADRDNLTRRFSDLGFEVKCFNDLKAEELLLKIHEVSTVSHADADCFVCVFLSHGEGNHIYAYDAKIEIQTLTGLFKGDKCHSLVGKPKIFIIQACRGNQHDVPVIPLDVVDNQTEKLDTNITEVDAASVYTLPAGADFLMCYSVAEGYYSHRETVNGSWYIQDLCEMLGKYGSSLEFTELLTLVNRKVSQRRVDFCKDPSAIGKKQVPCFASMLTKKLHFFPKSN

[17] = target: T2, Small ubiquitin-related modifier 1; assay: inhibitors of SUMO1 partner interactions, dose response, biochemical, FRET (AID 624383); format: functional; conditions: read-out: IC50_Mean
[18] = target: T4, Apoptotic protease-activating factor 1 (Homo sapiens, UniProt O14727); format: functional
T4 sequence (O14727 whole entry): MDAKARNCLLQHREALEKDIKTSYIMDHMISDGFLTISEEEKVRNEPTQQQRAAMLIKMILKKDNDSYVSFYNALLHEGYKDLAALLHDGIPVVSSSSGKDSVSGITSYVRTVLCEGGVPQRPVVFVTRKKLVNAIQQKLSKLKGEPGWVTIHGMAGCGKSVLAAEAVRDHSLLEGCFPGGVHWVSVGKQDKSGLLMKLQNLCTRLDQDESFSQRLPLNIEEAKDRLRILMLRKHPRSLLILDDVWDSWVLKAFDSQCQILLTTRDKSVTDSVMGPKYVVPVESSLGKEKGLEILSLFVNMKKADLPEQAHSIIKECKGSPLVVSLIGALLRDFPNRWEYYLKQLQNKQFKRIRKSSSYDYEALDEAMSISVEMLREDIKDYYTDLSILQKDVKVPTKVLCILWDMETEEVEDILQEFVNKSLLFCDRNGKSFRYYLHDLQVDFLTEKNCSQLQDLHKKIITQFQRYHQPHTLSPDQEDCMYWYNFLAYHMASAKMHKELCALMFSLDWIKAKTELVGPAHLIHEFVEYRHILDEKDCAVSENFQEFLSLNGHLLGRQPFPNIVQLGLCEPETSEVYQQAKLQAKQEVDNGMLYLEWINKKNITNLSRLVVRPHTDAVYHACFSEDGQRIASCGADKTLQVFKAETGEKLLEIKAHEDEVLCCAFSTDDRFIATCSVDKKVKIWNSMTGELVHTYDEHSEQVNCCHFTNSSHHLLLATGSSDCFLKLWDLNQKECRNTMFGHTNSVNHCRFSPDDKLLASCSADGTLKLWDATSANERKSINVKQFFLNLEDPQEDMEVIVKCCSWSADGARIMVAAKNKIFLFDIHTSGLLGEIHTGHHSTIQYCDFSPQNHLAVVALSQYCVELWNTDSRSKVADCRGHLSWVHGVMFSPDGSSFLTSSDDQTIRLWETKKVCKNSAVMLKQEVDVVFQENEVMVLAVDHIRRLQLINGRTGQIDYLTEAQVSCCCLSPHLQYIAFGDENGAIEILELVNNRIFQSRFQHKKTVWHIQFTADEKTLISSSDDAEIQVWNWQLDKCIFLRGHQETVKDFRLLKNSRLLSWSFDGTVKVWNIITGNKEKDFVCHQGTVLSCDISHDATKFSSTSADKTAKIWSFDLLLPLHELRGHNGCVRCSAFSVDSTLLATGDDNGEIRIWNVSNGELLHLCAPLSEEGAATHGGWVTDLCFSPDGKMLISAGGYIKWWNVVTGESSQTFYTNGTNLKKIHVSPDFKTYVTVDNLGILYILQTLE

Genome polyprotein = Genome polyprotein (dengue virus type 2, UniProt P29990); assay: Dengue-2 NS5 methyltransferase inhibitors, primary screen, biochemical, confirmation dose response (AID 588689); format: functional
Genome polyprotein, sequence (P29990 2492-3391 limits assumed): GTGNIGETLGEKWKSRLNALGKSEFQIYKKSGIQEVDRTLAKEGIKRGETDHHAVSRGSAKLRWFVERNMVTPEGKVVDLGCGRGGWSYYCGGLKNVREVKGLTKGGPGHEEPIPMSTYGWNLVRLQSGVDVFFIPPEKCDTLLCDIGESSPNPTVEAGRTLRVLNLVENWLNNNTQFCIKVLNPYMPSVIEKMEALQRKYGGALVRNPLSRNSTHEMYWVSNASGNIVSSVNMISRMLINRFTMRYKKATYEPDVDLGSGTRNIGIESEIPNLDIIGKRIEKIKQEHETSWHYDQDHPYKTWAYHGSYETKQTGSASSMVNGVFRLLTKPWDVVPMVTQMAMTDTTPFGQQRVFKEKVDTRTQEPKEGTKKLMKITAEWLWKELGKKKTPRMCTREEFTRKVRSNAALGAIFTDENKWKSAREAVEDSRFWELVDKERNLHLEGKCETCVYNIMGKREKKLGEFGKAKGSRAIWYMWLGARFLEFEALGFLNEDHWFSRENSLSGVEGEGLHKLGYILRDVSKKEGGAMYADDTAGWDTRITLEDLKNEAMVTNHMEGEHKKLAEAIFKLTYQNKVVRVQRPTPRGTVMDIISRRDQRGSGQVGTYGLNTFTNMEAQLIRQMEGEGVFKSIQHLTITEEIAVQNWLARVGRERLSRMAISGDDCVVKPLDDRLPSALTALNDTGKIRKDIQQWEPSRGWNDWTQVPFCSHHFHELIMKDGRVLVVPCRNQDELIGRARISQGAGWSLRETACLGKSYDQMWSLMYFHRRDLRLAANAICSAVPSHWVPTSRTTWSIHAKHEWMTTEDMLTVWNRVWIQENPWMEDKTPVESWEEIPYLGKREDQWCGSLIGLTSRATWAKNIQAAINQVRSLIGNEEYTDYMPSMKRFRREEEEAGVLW

[19] = target: Tyrosyl-DNA phosphodiesterase 2 (Homo sapiens, UniProt O95551); assay: human TDP2 enzyme inhibitors, dose response, biochemical, epi absorbance, IC50 (AID 743297)
Tyrosyl-DNA phosphodiesterase 2, sequence (O95551 whole entry): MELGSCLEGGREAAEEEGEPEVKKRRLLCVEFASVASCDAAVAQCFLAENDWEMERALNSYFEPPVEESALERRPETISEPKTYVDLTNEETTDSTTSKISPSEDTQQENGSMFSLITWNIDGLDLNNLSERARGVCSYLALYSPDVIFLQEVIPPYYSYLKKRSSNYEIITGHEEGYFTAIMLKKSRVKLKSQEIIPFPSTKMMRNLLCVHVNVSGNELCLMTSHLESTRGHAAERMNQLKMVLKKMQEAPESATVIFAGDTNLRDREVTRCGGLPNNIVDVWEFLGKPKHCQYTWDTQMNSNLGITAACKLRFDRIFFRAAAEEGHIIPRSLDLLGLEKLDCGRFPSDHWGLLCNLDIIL

[20] = Shn3 3'UTR reporter inhibitors, dose response, cell-based, Clone20 osteoblasts, firefly luciferase, cherry-picked (AID 624132); format: functional;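 further: firefly luciferase luminescence from reporter carrying the Shn3 3'UTR in osteoblasts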
[21] = target: Heat shock protein HSP 90-alpha (Homo sapiens, UniProt P07900); format: functional, organism-based
[22] = target: T5, Heat shock factor protein 1 (Mus musculus, UniProt P38532); assay: HSF1 potentiators in luciferase reporter cells, confirmation, cell-based, NIH3T3, luminescence, dose retest (AID 435004); format: functional;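 further: stress induced by proteasome inhibitor MG132 added 30 min after compound; luciferase reporter driven by HSF1 response element in NIH3T3 cells; actives raise luminescence as potentiators of the MG132 stress response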
T5 sequence (P38532 whole entry): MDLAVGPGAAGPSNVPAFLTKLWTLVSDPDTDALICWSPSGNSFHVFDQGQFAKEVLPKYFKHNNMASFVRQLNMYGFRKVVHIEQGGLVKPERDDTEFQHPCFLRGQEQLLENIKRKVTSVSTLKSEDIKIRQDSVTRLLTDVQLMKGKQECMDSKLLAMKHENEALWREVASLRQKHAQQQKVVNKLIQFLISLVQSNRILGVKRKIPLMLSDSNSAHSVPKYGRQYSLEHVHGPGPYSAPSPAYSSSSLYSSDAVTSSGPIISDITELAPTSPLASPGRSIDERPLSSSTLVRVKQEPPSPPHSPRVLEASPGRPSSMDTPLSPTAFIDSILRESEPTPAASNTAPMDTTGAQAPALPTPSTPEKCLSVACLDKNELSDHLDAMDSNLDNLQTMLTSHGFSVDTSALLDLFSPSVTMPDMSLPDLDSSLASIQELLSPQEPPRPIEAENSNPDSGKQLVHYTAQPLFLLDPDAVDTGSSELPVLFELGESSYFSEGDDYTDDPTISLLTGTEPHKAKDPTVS

[23] = target: T6, Short transient receptor potential channel 4 (Mus musculus, UniProt Q9QUQ5); assay: mouse TRPC4 channel activators, dose response, cell-based, HEK293 TRPC4/mu-opioid, Fluo-4 calcium (AID 434937); format: functional
T6 sequence (Q9QUQ5 whole entry): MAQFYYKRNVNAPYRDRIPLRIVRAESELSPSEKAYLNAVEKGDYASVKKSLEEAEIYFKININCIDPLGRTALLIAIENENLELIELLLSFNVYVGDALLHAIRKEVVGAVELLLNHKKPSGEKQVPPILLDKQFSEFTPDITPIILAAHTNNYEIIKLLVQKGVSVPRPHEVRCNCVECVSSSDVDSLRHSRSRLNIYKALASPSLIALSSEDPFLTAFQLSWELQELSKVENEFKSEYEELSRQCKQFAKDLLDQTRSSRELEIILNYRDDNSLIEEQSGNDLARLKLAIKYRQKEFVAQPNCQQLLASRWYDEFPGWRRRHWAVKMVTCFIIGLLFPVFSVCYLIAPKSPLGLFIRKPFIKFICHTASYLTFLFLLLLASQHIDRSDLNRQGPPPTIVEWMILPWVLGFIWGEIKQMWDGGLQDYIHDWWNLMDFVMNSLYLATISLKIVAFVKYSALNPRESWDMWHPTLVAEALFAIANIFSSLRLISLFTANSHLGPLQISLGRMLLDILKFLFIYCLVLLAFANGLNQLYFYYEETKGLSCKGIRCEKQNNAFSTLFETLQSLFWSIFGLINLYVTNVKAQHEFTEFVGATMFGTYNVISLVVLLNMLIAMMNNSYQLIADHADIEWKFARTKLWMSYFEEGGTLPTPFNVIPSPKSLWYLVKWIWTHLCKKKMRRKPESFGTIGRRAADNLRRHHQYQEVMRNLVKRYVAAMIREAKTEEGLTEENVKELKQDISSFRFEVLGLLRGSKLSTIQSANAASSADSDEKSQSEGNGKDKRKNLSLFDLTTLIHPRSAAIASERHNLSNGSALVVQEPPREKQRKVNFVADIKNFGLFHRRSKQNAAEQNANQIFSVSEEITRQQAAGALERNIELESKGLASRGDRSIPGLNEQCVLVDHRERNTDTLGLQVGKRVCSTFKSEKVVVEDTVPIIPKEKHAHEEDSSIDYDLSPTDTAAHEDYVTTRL

[24] = inhibitors of control Renilla luciferase reporter, dose response, counter-screen for Shn3 3'UTR targeting project, Clone20-Shn3RL cells, dual-Glo, cherry-pick, set 2 (AID 720724); format: functional, cell-based; conditions: Dual-Go Shn3RL

COc1ccc(NC(=O)c2sc3cc(C(F)(F)F)cnc3c2-c2cccs2)cc1
IC50 [1]: > 122 µM (inactive) | IC50 [2]: > 122 µM (inactive)

COc1ccccc1NC(=O)c1cccc(NC(=O)c2ccccc2OC)c1
IC50 [3]: 3.02 µM (active) | IC50 [4]: 0.03 µM (active) | IC50 [5]: 0.008 µM (active)

O=[N+]([O-])c1cccc(S(=O)(=O)Nc2cc(Sc3nc4ccccc4s3)c(O)c3ccccc23)c1
CC50 [6]: 11.5 µM (active)

CO[C@@H]1CN(C)C(=O)c2cc(NC(=O)Nc3ccc(Cl)c(Cl)c3)ccc2OC[C@H](C)NC[C@H]1C
AC50 [7]: 24.8 µM (active) | AC50 [8]: 7.83 µM (active) | AC50 [9]: > 52 µM (inactive) | AC50 [10]: 6.4 µM (active)

Cc1ccc(NC(=O)CN(C)C(=O)c2cccc(-n3cccc3)c2)cc1
IC50 [11]: 5.68 µM (active) | AC50 (Caspase-7): > 70 µM (inactive) | IC50 (Prothrombin): 86.9 µM (active) | AC50 (Caspase-8): > 70 µM (inactive) | IC50 [12]: 18.4 µM (active) | IC50 [13]: 11 µM (active) | CC50 [14]: > 40 µM (active) | IC50 [15]: > 66.6 µM (inactive) | IC50 [16]: 9.26 µM (active) | AC50 (Caspase-6): 1.5 µM (active) | IC50 [17]: 5.95 µM (active)

O=C1C(O)=C(O)C(=O)c2ccccc21
IC50 [18]: 12.5 µM (active) | IC50 (Genome polyprotein): > 100 µM (active) | IC50 [19]: 19.3 µM (inactive)

O=C1S/C(=C\c2ccc(N3CCOCC3)o2)C(=O)N1Cc1c(F)cccc1Cl
AC50 [20]: 6.72 µM (active) | AC50 [21]: 18.5 µM (active) | EC50 [22]: > 260 µM (inactive) | EC50 [23]: 6.68 µM (active) | AC50 [24]: 42.1 µM (active)
